Results on 3 compounds are retold here after patent US9745581B2, “Methods of treating and diagnosing diseases using agents that regulate the alternative splicing pathway” (Yissum Research Development Company of the Hebrew …, priority 2012, dated 2017).

Series [1] relates to Mnk1/2. The series is described as follows: Western blot of p38-MAPK phosphorylation in MEFs treated with Mnk1/2 kinase inhibitor. Particulars: CGP 57380 for 4 h, FIG. 5E. The series is classed as cell-based, mouse. An excerpt: (A) MCF-10A cells were transduced with the indicated retroviruses encoding for Mnk2 isoforms or Mnk2aKD. Total protein from stable pools was extracted and separated on SDS-PAGE and was subjected to Western blot analysis with the indicated antibodies. Numbers represent ratio of p-p38/total p38 normalized to that of pBABE (arbitrarily set at 1)±SD (n=2). (B) MCF-10A cells described in (A) were transduced by H-RAS^V12 and after selection cells were lysed and subjected to Western blot analysis with the indicated antibodies. Numbers representing ratio of p-p38/total p38 were calculated as described in (A) (n=2). (C) Immortal MEFs from Mnk2^−/− mouse were transduced with retrovirus encoding either no mammalian protein (pBABE) or various Mnk2 variants. […] (D) Immortal MEFs from WT, Mnk1^−/− or Mnk2^−/− mice were lysed and analyzed as in (A). (E) Immortal MEFs described in (D) were seeded in 6-well plates. […]
(A) Cell lines from breast immortal or cancer (MCF-7, MDA-MB-231, SUM-149, SUM-159, MDA-MB-468) cell lines were seeded in 6-well plates and 24 h later were lysed and subjected to Western blot analysis with the indicated antibodies. (B-C) Quantitation of p38 and eIF4E phosphorylation levels. […] (G) MCF-10A cells were seeded in 6-well plates, treated and analyzed as in (D). […]
A general note: Immunoblotting shows a protein as a band on a membrane.

The test system of series [2] is Mnk1/2. The series is described as follows: Western blot of p38-MAPK phosphorylation in MCF-10A cells treated with Mnk1/2 kinase inhibitor. The series is classed as cell-based, human. Particulars: CGP 57380 for 4 h, FIG. 8G. As for the experimental part: (A) Cell lines from breast immortal or cancer (MCF-7, MDA-MB-231, SUM-149, SUM-159, MDA-MB-468) cell lines were seeded in 6-well plates and 24 h later were lysed and subjected to Western blot analysis with the indicated antibodies. (B-C) Quantitation of p38 and eIF4E phosphorylation levels. The level of phosphorylated p38 and eIF4E was normalized to that of their total level. Results are presented as an average±SD (n=2). (D-F) Immortal MEFs from WT (Mnk 1/2 WT), Mnk1^−/− or Mnk2^−/− mice were seeded in 6-well plates. 24 h later cells were either treated with the vehicle (DMSO) or treated with the Mnk1/2 kinase inhibitor, CGP 57380 (CGP) at the indicated concentrations for 4 h, and subjected to Western blot analysis with the indicated antibodies. (G) MCF-10A cells were seeded in 6-well plates, treated and analyzed as in (D). […] C-myc (nuclear) and caspase-2 (cytoplasmic) served as fractionation controls.

Series [3] deals with Mnk1/2. Put plainly: Q-RT-PCR of p38α target genes FOS and COX-2 in MCF-10A cells. The series is classed as cell-based, human. Particulars: serum starved, CGP 57380 for 8-10 h, FIG. 7E. As for the experimental part:
(C). RNA from WT MEFs, Mnk2^−/− MEFS and Mnk2^−/− MEFS transduced with Mnk2a was extracted and the levels of FOS and COX-2 were analyzed by Q-RT-PCR. (D). RNA from MCF-10A cells transduced with the indicated Mnk2 isoforms and the indicated Mnk2a mutants was extracted and the levels of FOS and COX-2 were measured as described above. (E). MCF-10A cells were seeded in 10 cm plates. 24 h later, cells were serum starved for an additional 24 h, then treated with Mnk1/2 inhibitor CGP 57380 at the indicated concentrations for 8-10 h. RNA from cells was extracted and the levels of p38α-targets genes; FOS and COX-2 were measured by Q-RT-PCR as described above. (F). MCF-10A cells described in (D) were serum starved for 24 h and then treated with 0.5 μM anisomycin for 24 h and were subjected to trypan-blue exclusion assay (Graph). Bottom panel: cells described in (F) were centrifuged and lysed with Laemmli buffer and proteins were subjected to Western blot analysis. […]
Q-RT-PCR: Total RNA was extracted with Tri reagent (Sigma) and 2 μg of total RNA was reverse transcribed using the AffinityScript (Stratagene) reverse transcriptase. The mRNA levels of FOS, and COX-2 were determined in MCF-10A breast cell lines by performing quantitative PCR with SYBER Green (SYBR® Premix Ex Taq™ # RR041A) using the CFX96 (Bio-Rad) machine. […]

In series [4] the test system is Panc-1 cells. Put plainly: Anisomycin-induced cell death of Panc-1 cells expressing Mnk2a, with or without p38 inhibitor. The series is classed as cell-based, human. The conditions noted are these: Panc-1, 0.5 μM anisomycin, 20 μM SB203580, FIG. 5J. As for the experimental part:
After selection with hygromycin transductants were maintained in growth factor-free medium in suspension for 48 h. Cell death was measured using the trypan blue exclusion assay. (J) Human pancreatic cancer cells Panc-1 were seeded on 96-well plates (6000 cells/well). Following starvation cells were treated with 0.5 μM anisomycin in the presence or absence of 20 μM SB203580. (*, **p≦0.01). (K) MCF-10A cells were transduced as in (I). After selection cells were seeded in 6-well plates. 24 h later cells were serum starved in a growth factor-free medium for 24 h. Following starvation cells were treated with 0.5 M Sorbitol (to induce osmotic shock) and 24 h later were stained with trypan blue (n=2). (L) MCF-10A transduced with the indicated retroviruses encoding for shRNAs against Mnk2a were seeded as in (K). (*, p≦0.01, ** p≦0.05). […] 10 days post selection with hygromycin cells were assessed for colony formation with methylene blue staining. n=3. […]
Survival and apoptosis assays: MCF-10A or Panc-1 cells were transduced with the indicated retroviruses. […] Cells were fixed and stained with methylene blue and the absorbance at 650 nm of the acid-extracted stain was measured on a plate reader (BioRad) and was normalized to cell absorbance at “Time 0”. […] 10 μl of the cell suspension was mixed with 10 μl of 4% trypan blue solution and live/dead cells were counted in Bio-Rad TC-10 Automated Cell Counter. […]

In series [5] the test system is MCF-10A cells. Put plainly: Soft agar colony formation of MCF-10A cells co-transduced with Mnk2a and oncogenic Ras. The series is classed as cell-based, human. Particulars: H-RAS V12, colonies counted 14 days later, FIGS. 4F-G. As for the experimental part:
(§1) (C-D). […] (*, **, ***p≦0.01n=3).
Anchorage-independent growth: Colony formation in soft agar was assayed as described previously (17). Plates were incubated at 37° C. and 5% CO2. After 10-18 days, colonies were counted from ten different fields in each of two wells for each transductant pool and the average number of colonies per well was calculated. The colonies were stained and photographed under a light microscope at 100× magnification.

The subject of series [6] is MCF-10A cells. Put plainly: Cell death induced by constitutively active p38α in MCF-10A cells expressing Mnk2a. The series is classed as cell-based, human. The conditions noted are these: 20 μM SB203580 for 48 hours, FIGS. 4A-B.
Text: as §1

Series [7] concerns p38. Particulars: MCF-10A, 1 μM anisomycin, 10 μM SB203580, FIG. 4E.
Procedure: (E) MCF-10A cells transduced with retroviruses containing the indicated Mnk2 isoforms or a kinase dead version of Mnk2a (Mnk2aKD) or with isoform specific shRNAs against Mnk2a were treated with 1 μM anisomycin, in the presence or absence of 10 μM SB203580. Cells were lysed and proteins were subjected to Western blot analysis with the indicated antibodies.
Immunoblotting: Cells were lysed in Laemmli buffer and analyzed for total protein concentration as described previously (17). 30 μg of total protein from each cell lysate was separated by SDS-PAGE and transferred to a nitrocellulose membrane. The membranes were blocked, probed with antibodies and detected using enhanced chemiluminescence. Primary antibodies were anti phospho-eIF4E Ser209 (1:1000), eIF4E (1:1000), phospho-p38 (Thr180/Tyr182) (1:1000), phospho-MNK (T197/T202) (1:1000), phospho-MK2 (1:1,000), MK2 (1:1,000), (Cell Signaling Technology). […] Secondary antibodies were HRP-conjugated goat anti-mouse, goat anti-rabbit or donkey anti-goat IgG (H+L) (1:10,000, Jackson Laboratories).
Series [8] has as its system Mnk2 splicing. Put plainly: RT-PCR of Mnk2 splicing after PNA treatment. Particulars: Ras-transformed MCF-10A cells, FIG. 36C. The series is classed as cell-based, human. As for the experimental part:
(§2) FIGS. 36A-C. […] Ras-transformed MCF-10A cells were incubated for 5 hours with 0.05 μM scrambled (non-specific) PNA or MNK2a specific PNA (see the position of the PNA marked in red in the scheme). 24 h later cells were counted and seeded in low density (20 cells/well) in 6-well plates. 14 days later, surviving colonies were counted and photographed.
RT-PCR: Total RNA was extracted with Tri reagent (Sigma) and 2 μg of total RNA was reverse transcribed using the AffinityScript (Stratagene) reverse transcriptase. PCR was performed on 1/10 (2 μl) of the cDNA, in 50 μl reactions containing 0.2 mM dNTP mix, 10×PCR buffer with 15 mM MgCl2 (ABI), 2.5 units of TaqGold (ABI) and 0.2 […]; 5% (v/v) DMSO was included in some reactions. PCR conditions were 95° C. for 5 min, then 33 cycles of 94° C. for 30 s, 57° C. for 30 s and 72° C. for 45 s, followed by 10 min at 72° C. PCR products were separated on 1.5% or 2% agarose gels. Primers are listed herein below.

Series [9] concerns Ras-transformed MCF-10A breast cells. The series is described as follows: Colony survival of Ras-transformed MCF-10A cells after PNA incubation. The conditions noted are these: 0.05 μM PNA for 5 hours, seeded 20 cells/well, colonies counted 14 days later, versus scrambled PNA. The series is classed as cell-based, human. As for the experimental part:
as §2

Entries after “also recorded” stand apart in the source; their conditions may differ.

As for `Nc1ncnc2n[nH]c(Nc3ccc(F)cc3)c12` [CGP 57380], in series [1] (Mnk2-/- MEFs, FIG. 8D-F), the “p38 phosphorylation in Mnk2-/- MEFs” value is given as “could not be further reduced”. Further, in [1] (WT and Mnk1-/- MEFs), the “p38-MAPK phosphorylation (T180, Y182) in WT and Mnk1-/- MEFs” value is given as “reduced p38-MAPK phosphorylation”. For the same compound, the “p38-MAPK phosphorylation in MCF-10A cells” value in series [2] is listed as “reduced p38-MAPK phosphorylation”. Moreover, in series [3], the “expression of p38-MAPK target genes (FOS, COX-2)” value is “reduced the expression p38-MAPK target genes”.
Turning to `C[S+]([O-])c1ccc(-c2nc(-c3ccncc3)c(-c3ccc(F)cc3)[nH]2)cc1` (stereo not shown) [SB203580], the “anisomycin-induced cell death of cells expressing Mnk2a” value in series [4] was “partially rescued; also recorded: rescued Panc-1 cells from Mnk2a-induced sensitivity to anisomycin treatment”. In addition, the “colony formation in soft agar of cells co-transduced with Mnk2a and Ras” value in [5] is “rescued the ability of cells co-transduced with Mnk2a and Ras to form colonies in soft agar”. Besides, in [6], the “cell death upon active p38-MAPK transduction in cells expressing Mnk2a” value was “inhibited by SB203580”. Also, the “p38 activity measured by phosphorylation of its substrate MK-2” value in [7] was “efficiently inhibited p38 activity”.
On to “PNA: PNA based molecule hybridizing to the bridging region between exon 14b and the preceding intron, preventing Mnk2b generation; likely SEQ ID NO: 157 (AGACTTCCACCCTGTCAG; PNA modified oligonucleotide, pattern not given here)”, for which the “Mnk2 splicing (Mnk2a level) by RT-PCR” value in series [8] is reported as “can modulate Mnk2 splicing to elevate Mnk2a”. Besides, the “survival of Ras-transformed MCF-10A breast cells (surviving colonies)” value in series [9] was “reduces survival; also recorded: decreased the survival”.
